Experimental data as given in patent US11098102B2, “Insulin conjugates” (SANOFI, priority 2018, dated 2021).

Target: insulin receptor isoform B (IR-B) (Homo sapiens, UniProt P06213)
Assay: Insulin receptor autophosphorylation assay (In-Cell Western, CHO cells, Example 8B)
Assay type: cell-based
Set-up: expressed in transfected cells; host or cells: CHO cells
Conditions: relative to human insulin

Chain of insulin receptor isoform B (IR-B) (P06213 28-758 limits assumed): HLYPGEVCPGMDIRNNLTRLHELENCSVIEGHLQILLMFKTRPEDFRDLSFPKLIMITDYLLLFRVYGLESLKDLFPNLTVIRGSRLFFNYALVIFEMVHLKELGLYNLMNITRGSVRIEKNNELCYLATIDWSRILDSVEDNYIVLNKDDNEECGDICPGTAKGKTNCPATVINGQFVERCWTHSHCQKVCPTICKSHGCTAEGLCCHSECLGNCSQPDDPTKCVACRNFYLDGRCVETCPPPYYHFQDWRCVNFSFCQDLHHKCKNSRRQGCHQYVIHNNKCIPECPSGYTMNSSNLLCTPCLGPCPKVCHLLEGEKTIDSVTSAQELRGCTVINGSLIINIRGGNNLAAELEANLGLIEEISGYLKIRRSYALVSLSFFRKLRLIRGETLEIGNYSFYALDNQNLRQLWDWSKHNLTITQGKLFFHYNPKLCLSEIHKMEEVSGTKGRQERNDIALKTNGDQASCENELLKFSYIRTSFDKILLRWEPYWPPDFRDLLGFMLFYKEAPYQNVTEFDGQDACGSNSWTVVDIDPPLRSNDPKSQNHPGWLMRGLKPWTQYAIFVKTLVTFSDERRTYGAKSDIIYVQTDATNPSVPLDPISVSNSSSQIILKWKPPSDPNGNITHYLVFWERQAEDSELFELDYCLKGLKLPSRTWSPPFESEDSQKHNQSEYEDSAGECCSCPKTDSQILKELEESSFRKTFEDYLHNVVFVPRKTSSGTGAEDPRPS
Chain of insulin receptor isoform B (IR-B) (P06213 763-1382 limits assumed): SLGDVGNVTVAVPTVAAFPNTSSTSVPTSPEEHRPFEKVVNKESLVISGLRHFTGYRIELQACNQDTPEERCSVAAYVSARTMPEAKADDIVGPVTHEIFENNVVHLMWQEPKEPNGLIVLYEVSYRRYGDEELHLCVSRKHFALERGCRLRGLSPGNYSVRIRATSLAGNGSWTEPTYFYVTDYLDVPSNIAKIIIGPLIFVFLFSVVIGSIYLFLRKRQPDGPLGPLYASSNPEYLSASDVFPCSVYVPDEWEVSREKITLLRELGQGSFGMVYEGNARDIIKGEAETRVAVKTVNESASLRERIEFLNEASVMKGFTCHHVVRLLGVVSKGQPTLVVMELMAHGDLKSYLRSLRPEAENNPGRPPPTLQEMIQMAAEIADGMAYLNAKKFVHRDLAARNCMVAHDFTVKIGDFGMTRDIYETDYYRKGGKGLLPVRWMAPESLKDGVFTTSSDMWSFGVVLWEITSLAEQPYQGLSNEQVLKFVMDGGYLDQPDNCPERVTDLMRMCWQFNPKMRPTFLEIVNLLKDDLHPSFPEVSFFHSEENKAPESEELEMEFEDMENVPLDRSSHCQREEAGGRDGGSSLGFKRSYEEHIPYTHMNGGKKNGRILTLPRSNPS

| Structure (SMILES) | autophosphorylation activity |
| --- | --- |
| O=C(O)CCCCCCCCCCCCCCOc1ccc(S(=O)(=O)Nc2ncc(C(=O)CCCCCCC(=O)NCCOCCOCC(=O)NCCOCCOCC(=O)O)cn2)cc1 [Binder 6] | 0.32 |
| O=C(O)CCCCCCCCCCCCCc1cccc(S(=O)(=O)Nc2ncc(C(=O)NCCOCCOCC(=O)NCCOCCOCC(=O)O)cn2)c1 [Binder 29] | 0.01 |
| O=C(O)CCCCCCCCCCCc1ccc(Oc2ccc(S(=O)(=O)Nc3ccc(C(=O)NCCOCCOCC(=O)NCCOCCOCC(=O)O)cn3)cc2)cc1 [Binder 27] | 0.11 |
| O=C(O)CCCCCCCCCCCCCc1cc(Oc2ccc(S(=O)(=O)Nc3ncc(C(=O)NCCOCCOCC(=O)NCCOCCOCC(=O)O)cn3)cc2)ccc1F [Binder 8] | 0.17 |

Target: T1, immobilized human serum albumin (Homo sapiens, UniProt P02768)
T1 construct: purchased Chiralpak (Chiraltech) 34712
Assay: Albumin binding: affinity chromatography on columns with immobilized human serum albumin (net retention time)
Conditions: isolated binders; HSA column 25° C., PBS pH 7.4/isopropanol gradient
Description: In order to identify suitable binder molecules, which when bound to a peptide, such as an insulin, are able to improve the half-life in plasma and to prolong the profile of action, a system was established based on affinity chromatography with serum albumin columns, i.e. columns with immobilized serum albumin.
The net retention time of the binders (samples) was calculated according to the following formula: Net retention time=RetTimeSample−RetTimet0 marker
• Instrument: Waters Alliance 2795/Waters PDA 2996 or Waters H-Class UPLC equipped with a Waters Acquity photodiode-array detector • Software: Waters Empower 3 • Column: […]® HSA 50×4 mm; 5 μm Particle size • Chiraltech Order Numbers: HSA: 34712 • Eluent A: Phosphate Buffer saline (PBS) at pH=7.4 • Gibco PBS pH7.4 (10×) Phosphate Buffered Saline 500 ml; • Order Number: 70011-036 (500 ml) • Eluent B: Isopropanol • Fisher Order Number: A461-1 (10 • Gradient:
• Column temperature: 25° C. • Flow rate: 1.0 ml/min • Detection: λ=220 nm • Injection volume: 20 μL • Sample Conc.: 1 mg/ml insulin solution in PBS for insulin samples • 5 μL of 10 mM DMSO stock solution (DMSO evaporated and re-dissolved in 200 μL i-propanol/water 1:1 v/v) for isolated binder samples (250 μM, 0.2 mg/ml at 800 Da MolWeight) • t0 marker Sodium Nitrate (NaNO3) solution in water, 0.05 mg/ml • Diluted from aqueous 1 mg/ml stock solution (Fluka Order Number: 74246-100ML) • Reported Value Net retention time of sample: RetTime Sample−RetTime t0 marker
Affinity chromatography was carried out i) for insulin conjugates according to Examples 3.3 and 3.4 on a Waters Alliance Separation Module 2695 equipped with a Waters photodiode-array detector 2996 or Waters H-Class UPLC equipped with a Waters Acquity photodiode-array detector and ii) for isolated binders according to Example 2.11 on a Waters Alliance Separation Module 2795 equipped with a Waters photodiode-array detector 2996 or Waters H-Class UPLC equipped with a Waters Acquity photodiode-array detector.
Columns with immobilized human serum albumin (50×4 mm; 5 μm particle size) were purchased from Chiralpak and used for separations.
The columns with immobilized serum albumin were kept at 25° C. during the LC run, UV detection was carried out at 220 nm and injection volume was 20 μL.
The net retention time of the samples was reported according to Net retention time=RetTime Sample−RetTime t0 marker

T1 sequence (P02768 25-609): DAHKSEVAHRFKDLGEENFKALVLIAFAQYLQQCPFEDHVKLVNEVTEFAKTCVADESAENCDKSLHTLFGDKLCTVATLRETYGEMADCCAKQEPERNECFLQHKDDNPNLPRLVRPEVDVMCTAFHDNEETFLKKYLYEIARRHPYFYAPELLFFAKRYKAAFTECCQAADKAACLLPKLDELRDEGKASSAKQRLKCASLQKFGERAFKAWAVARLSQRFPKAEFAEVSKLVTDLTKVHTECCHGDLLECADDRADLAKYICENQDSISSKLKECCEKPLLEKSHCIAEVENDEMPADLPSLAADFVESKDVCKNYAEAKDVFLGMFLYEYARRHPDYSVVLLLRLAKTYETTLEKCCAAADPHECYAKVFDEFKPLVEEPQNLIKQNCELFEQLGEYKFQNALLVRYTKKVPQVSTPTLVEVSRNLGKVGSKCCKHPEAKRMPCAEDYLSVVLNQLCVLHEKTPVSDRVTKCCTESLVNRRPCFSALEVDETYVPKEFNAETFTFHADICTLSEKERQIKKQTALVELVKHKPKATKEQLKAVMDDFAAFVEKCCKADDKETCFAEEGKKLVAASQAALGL

| Structure (SMILES) | NRT [min] (net retention time on columns with immobilized human serum albumin) |
| --- | --- |
| O=C(O)CCCCCCCCCCCCCCCc1ccc(S(=O)(=O)Nc2ncc(C(=O)NCCOCCOCC(=O)NCCOCCOCC(=O)O)cn2)cc1 [Binder 54] | 15.19 min |
| O=C(O)CCCCCCCCCCCc1ccc(S(=O)(=O)Nc2ncc(C(=O)NCCOCCOCC(=O)NCCOCCOCC(=O)O)cn2)cc1 [Binder 53] | 12.29 min |
| O=C(O)CCCCCCCCCCCCCCOc1ccc(S(=O)(=O)Nc2ncc(C(=O)NCCOCCOCC(=O)NCCOCCOCC(=O)O)cn2)cc1 [Binder 5] | 14.32 min |
| O=C(O)CCCCCCCCCCCCCc1ccc(OCc2ccc(S(=O)(=O)Nc3ncc(C(=O)NCCOCCOCC(=O)NCCOCCOCC(=O)O)cn3)cc2)cc1 [Binder 64] | 14.78 min |
| O=C(O)CCCCCCCCCCCCCCCOc1ccc(S(=O)(=O)Nc2ncc(C(=O)NCCOCCOCC(=O)NCCOCCOCC(=O)O)cn2)cc1Cl [Binder 50] | 13.74 min |
| O=C(O)CCCCCCCCCCCCCCCCCc1cccc(S(=O)(=O)Nc2ncc(C(=O)NCCOCCOCC(=O)NCCOCCOCC(=O)O)cn2)c1 [Binder 55] | 15.01 min |
| O=C(O)CCCCCCCCCc1ccc(S(=O)(=O)Nc2ncc(C(=O)NCCOCCOCC(=O)NCCOCCOCC(=O)O)cn2)cc1 [Binder 66] | 9.87 min |
| O=C(O)CCCCCCCCCc1ccc(Oc2ccc(S(=O)(=O)Nc3ncc(C(=O)NCCOCCOCC(=O)NCCOCCOCC(=O)O)cn3)cc2)cc1F [Binder 52] | 14.56 min |
| O=C(O)CCCCCCCc1cc(Oc2ccc(S(=O)(=O)Nc3ncc(C(=O)NCCOCCOCC(=O)NCCOCCOCC(=O)O)cn3)cc2)ccc1F [Binder 63] | 13.42 min |
| O=C(O)CCCCCCCc1ccc(CCOc2ccc(S(=O)(=O)Nc3ccc(C(=O)NCCOCCOCC(=O)NCCOCCOCC(=O)O)cn3)cc2)cc1 [Binder 43] | 11.36 min |
| O=C(O)CCCCCCCCCCCCCCCOc1cccc(S(=O)(=O)Nc2ncc(C(=O)NCCOCCOCC(=O)NCCOCCOCC(=O)O)cn2)c1 [Binder 68] | 14.74 min |
| O=C(O)CCCCCCCCCCCCCCCCCOc1ccc(S(=O)(=O)Nc2ccc(C(=O)NCCOCCOCC(=O)NCCOCCOCC(=O)O)cn2)cc1 [Binder 70] | 14.26 min |
| O=C(O)CCCCCCCCCCCCCCCOc1ccc(S(=O)(=O)Nc2ncc(C(=O)NCCOCCOCC(=O)NCCOCCOCC(=O)O)c(C(F)(F)F)n2)cc1 [Binder 45] | 13.8 min |
| O=C(O)CCCCCCCCCCCCCc1ccc(Oc2ccc(S(=O)(=O)Nc3ccc(C(=O)NCCOCCOCC(=O)NCCOCCOCC(=O)O)cn3)cc2)cc1 [Binder 42] | 14.35 min |
| O=C(O)CCCCCCCCCCCCCCCCCCCOc1ccc(S(=O)(=O)Nc2ccc(C(=O)NCCOCCOCC(=O)NCCOCCOCC(=O)O)cn2)cc1 [Binder 71] | 14.42 min |
| O=C(O)CCCCCCCCCCCCCCCCCc1cccc(S(=O)(=O)Nc2ncc(C(=O)NCCOCCOCC(=O)NCCOCCOCC(=O)O)cn2)c1 [Binder 41] | 14.98 min |

| Structure (SMILES) | NRT [min] (net retention time on columns with immobilized human serum albumin) |
| --- | --- |
| O=C(O)CCCCCCCc1ccc(CCOc2ccc(S(=O)(=O)Nc3ccc(C(=O)NCCOCCOCC(=O)NCCOCCOCC(=O)O)cn3)cc2)cc1 [Binder 46] | 14.48 min |
| O=C(O)CCCCCCCCCCCCCCOc1ccc(S(=O)(=O)Nc2ncc(C(=O)CCCCCCC(=O)NCCOCCOCC(=O)NCCOCCOCC(=O)O)cn2)cc1 [Binder 6] | 14.31 min |
| Cc1nc(NS(=O)(=O)c2ccc(OCCCCCCCCCCCCCCCC(=O)O)cc2)ncc1C(=O)NCCOCCOCC(=O)NCCOCCOCC(=O)O [Binder 47] | 13.73 min |
| O=C(O)CCCCCCCCCCCc1cccc(S(=O)(=O)Nc2ccc(C(=O)NCCOCCOCC(=O)NCCOCCOCC(=O)O)cn2)c1 [Binder 65] | 12.21 min |
| O=C(O)CCCCCCCCCCCCCc1cccc(S(=O)(=O)Nc2ccc(C(=O)NCCOCCOCC(=O)NCCOCCOCC(=O)O)cn2)c1 [Binder 21] | 16.26 min |
| O=C(O)CCCCCCCCCc1ccc(OCc2ccc(S(=O)(=O)Nc3ncc(C(=O)NCCOCCOCC(=O)NCCOCCOCC(=O)O)cn3)cc2)cc1 [Binder 1] | 16.76 min |
| O=C(O)CCCCCCCCCCCCCc1cccc(S(=O)(=O)Nc2ncc(C(=O)NCCOCCOCC(=O)NCCOCCOCC(=O)O)cn2)c1 [Binder 29] | 15.66 min |
| O=C(O)CCCCCCCCCCCc1ccc(Oc2ccc(S(=O)(=O)Nc3ccc(C(=O)NCCOCCOCC(=O)NCCOCCOCC(=O)O)cn3)cc2)cc1 [Binder 27] | 15.01 min |
| O=C(O)CCCCCCCCCCCCCCCCCOc1ccc(S(=O)(=O)Nc2ncc(C(=O)NCCOCCOCC(=O)NCCOCCOCC(=O)O)cn2)cc1 [Binder 69] | 14.24 min |
| O=C(O)CCCCCCCCCCCCCCOc1ccc(S(=O)(=O)Nc2ccc(C(=O)NCCOCCOCC(=O)NCCOCCOCC(=O)O)cn2)cc1 [Binder 9] | 14.01 min |
| O=C(O)CCCCCCCCCCCCCc1ccc(OCc2ccc(S(=O)(=O)Nc3ccc(C(=O)NCCOCCOCC(=O)NCCOCCOCC(=O)O)cn3)cc2)cc1 [Binder 44] | 15.04 min |
| O=C(O)CCCCCCCCCCCCCCCOc1cc(Cl)c(S(=O)(=O)Nc2ncc(C(=O)NCCOCCOCC(=O)NCCOCCOCC(=O)O)cn2)cc1Cl [Binder 72] | 13.96 min |
| O=C(O)CCCCCCCCCCCCCCCc1ccc(S(=O)(=O)Nc2ccc(C(=O)NCCOCCOCC(=O)NCCOCCOCC(=O)O)cn2)cc1 [Binder 59] | 15.47 min |
| O=C(O)CCCCCCCCCCCCCCCOc1ccc(S(=O)(=O)Nc2ccc(C(=O)NCCOCCOCC(=O)NCCOCCOCC(=O)O)cn2)cc1Cl [Binder 51] | 13.59 min |
| O=C(O)CCCCCCCCCCCCCc1cc(Oc2ccc(S(=O)(=O)Nc3ncc(C(=O)NCCOCCOCC(=O)NCCOCCOCC(=O)O)cn3)cc2)ccc1F [Binder 8] | 15.29 min |
| O=C(O)CCCCCCCCCc1ccc(S(=O)(=O)Nc2ccc(C(=O)NCCOCCOCC(=O)NCCOCCOCC(=O)O)cn2)cc1 [Binder 67] | 10.99 min |
